These results are taken from ChEMBL document CHEMBL5257124, “Design, synthesis and biological evaluation of novel indole-piperazine derivatives as antibacterial agents” (Bioorg Med Chem Lett, 2023).

Experiment [1] relates to Staphylococcus aureus. The experiment is described as follows: Antibacterial activity against Staphylococcus aureus ATCC 25923 assessed as reduction in bacterial growth. Type of experiment: functional.
Experiment [2] concerns Staphylococcus aureus. The experiment is described as follows: Antibacterial activity against methicillin resistant Staphylococcus aureus assessed as reduction in bacterial growth at 8 times MIC measured at 12 hrs by time kill assay. Type of experiment: functional. The arrangement: scale not given: the % may be the effect or the level left.
Experiment [3] concerns Staphylococcus aureus. The experiment is described as follows: Antibacterial activity against methicillin resistant Staphylococcus aureus assessed as reduction in bacterial growth at 2 microg/ml measured for 2 hrs. The format is functional. The settings on record: dose 2 µg/ml.
Experiment [4] concerns Staphylococcus aureus. The experiment is described as follows: Antibacterial activity against methicillin resistant Staphylococcus aureus ATCC 33591 assessed as reduction in bacterial growth. The format is functional.
Experiment [5] has as its system Staphylococcus aureus. The experiment can be described thus: Antibacterial activity against methicillin resistant Staphylococcus aureus assessed as reduction in bacterial growth at 1 times MIC by time kill assay. Type of experiment: functional, organism-based.
Experiment [6] deals with Staphylococcus aureus. The experiment can be described thus: Antibacterial activity against methicillin resistant Staphylococcus aureus assessed as reduction in bacterial growth at 1 microg/ml measured for 2 hrs. Type of experiment: functional. The settings on record: dose 1 µg/ml.
Experiment [7] concerns Staphylococcus aureus. The experiment is described as follows: Antibacterial activity against methicillin resistant Staphylococcus aureus assessed as reduction in bacterial growth at 8 times MIC measured at 24 hrs by time kill assay. The format is functional, organism-based.
Experiment [8] deals with Escherichia coli. The experiment can be described thus: Bactericidal activity against Escherichia coli ATCC 25922 assessed as reduction in bacterial growth. The format is functional.
Experiment [9] has as its system Staphylococcus aureus. The experiment is described as follows: Bactericidal activity against methicillin resistant Staphylococcus aureus ATCC 33591 assessed as reduction in bacterial growth. The format is functional.
Experiment [10] deals with Staphylococcus aureus. The experiment is described as follows: Bactericidal activity against Staphylococcus aureus ATCC 25923 assessed as reduction in bacterial growth. The format is functional.
The test system of experiment [11] is Staphylococcus aureus. The experiment can be described thus: Antibacterial activity against methicillin resistant Staphylococcus aureus assessed as reduction in bacterial growth at 0.5 microg/ml measured for 2 hrs. The settings on record: dose 0.5 µg/ml. The format is functional.
For experiment [12], the system named is Escherichia coli. The experiment can be described thus: Antibacterial activity against Escherichia coli ATCC 25922 assessed as reduction in bacterial growth. The format is functional.

In brackets after ≈: the same amount, converted by molar mass. Activity calls are given as the source filed them. The rule behind the calls is not given here.

By MIC is commonly meant the lowest concentration found to suppress growth. The MBC is the lowest tested concentration that kills the bacteria rather than only halting them. As to `O=C(O)c1cn(C2CC2)c2cc(N3CCNCC3)c(F)cc2c1=O` [CIPROFLOXACIN], the MIC with Staphylococcus aureus [1] and in the experiment with Staphylococcus aureus [4] was 0.5 µg/mL (≈ 1.51 µM) each time. Also, the Activity in the experiment with Staphylococcus aureus [2] was found to be 99.9%. Moreover, the PAE is 1.58 h with Staphylococcus aureus [3] and 1.22 h in the experiment on Staphylococcus aureus [6]. For the same compound, the outcome in the experiment on Staphylococcus aureus [5] and in the experiment with Staphylococcus aureus [7] was Active. Further, the MBC in the experiment on Escherichia coli [8] was found to be 1 µg/mL (≈ 3.02 µM); in the experiment on Staphylococcus aureus [9], 2 µg/mL (≈ 6.04 µM).

On to `CO[C@H]1/C=C/O[C@@]2(C)Oc3c(C)c(O)c4c(O)c(c(/C=N/N5CCN(C)CC5)c(O)c4c3C2=O)NC(=O)/C(C)=C\C=C\[C@H](C)[C@H](O)[C@@H](C)[C@@H](O)[C@@H](C)[C@H](OC(C)=O)[C@@H]1C` [RIFAMPIN], for which the results for the MIC with Staphylococcus aureus [1], in the experiment with Staphylococcus aureus [4] and in the experiment on Escherichia coli [12] were 0.25 µg/mL (≈ 0.304 µM), 0.25 µg/mL (≈ 0.304 µM) and 4 µg/mL (≈ 4.86 µM), respectively. Moreover, the results for the MBC in the experiment on Staphylococcus aureus [10], in the experiment on Escherichia coli [8] and in the experiment with Staphylococcus aureus [9] were 2 µg/mL (≈ 2.43 µM), 8 µg/mL (≈ 9.72 µM) and 1 µg/mL (≈ 1.22 µM), respectively. In the experiment with Staphylococcus aureus [2], the Activity worked out at 99.9%. Also, the PAE in the experiment with Staphylococcus aureus [11] is 1.8 h; in the experiment on Staphylococcus aureus [6] it was 3.45 h. Moreover, the result in the experiment on Staphylococcus aureus [5] and in the experiment with Staphylococcus aureus [7] was Active.
